# Data taken from patent US20220380383A1, “NEUROPROTECTIVE PDI MODULATING SMALL MOLECULES AND METHODS OF USE THEREOF” (THE TRUSTEES OF COLUMBIA UNIVERSITY IN THE CITY OF NEW YORK, priority 2018, published 2022).
# Like-named read-outs stand apart in the source and are kept apart here.
# Tests used:
# [1] = target: T1, human catalytic PDI A1 a domain (PDIa) (Homo sapiens, UniProt P07237); experiment: Isothermal titration calorimetry (ITC) binding to PDIa
# T1 construct: made in house; host or cells: Escherichia coli BL21-Gold (DE3)
# Description: All ITC experiments were carried out at 25° C. on MicoCal Auto-ITC200 system (GE Healthcare). […] ITC titration experiments were carried out at 25° C. with 19 injections, 2 μl per injection, and 180 seconds between each injection. The reference cell power was set to 5 μcal/sec. A control experiment was performed for each compound, where each compound was titrated into buffer to account for heat released due to dilution. This background was subtracted from test data before a final dissociation constant was obtained. […] Gibbs free energy, ΔG, was calculated from equation ΔG=ΔH-TΔS. All other parameters, Ka, n, ΔH, ΔS, were determined directly from the titration data.
# LOC14 analogs were designed and synthesized as described in the synthetic schemes. The analogs were evaluated for their binding to PDIa using isothermal titration calorimetry (ITC) (results of certain compounds are shown in FIGS. 1A-1E). Next, the analogs were tested for their ability to rescue PC12 cells from mHTT^Q103 induced cell death in a dose-dependent manner (results of certain compounds are shown in FIG. 2).
# PC12 mHTTQ103 cells = experiment: Rescue of PC12 cells from mHTTQ103-induced cell death; format: cell-based, rat; settings: for EC50: Rattus norvegicus, PC-12
# [2] = Solubility (stock solvent)
# [3] = Tables 5-13, NA = not active, read-out: Kd
# [4] = Tables 5-13, PC12 cells, read-out: EC50
# [5] = rescue from mHTTQ103 induced cell death
# [6] = Tables 5-13, solvent not given (DMSO in Table 1)
# [7] = N/A = not active, read-out: ITC KD
# [8] = rescue from mHTTQ103 induced cell death, read-out: PC12 cells EC50
# T1 sequence (P07237 18-134): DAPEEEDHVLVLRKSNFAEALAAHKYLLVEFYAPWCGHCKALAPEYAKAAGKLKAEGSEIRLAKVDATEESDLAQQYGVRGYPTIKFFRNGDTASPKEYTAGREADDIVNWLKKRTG
Solubility [2],"Solubility [2, 6]","Kd [1, 7]",ITC KD ([1]; N/A = not active),"Kd ([1]; ITC assay, read-out: KD)",Structure (SMILES),"Kd [1, 3]",EC50 (PC12 mHTTQ103 cells; [4]),"Max Viability (%) (PC12 mHTTQ103 cells; Tables 5-13, PC12 cells)",PC12 cells Max % Viability (PC12 mHTTQ103 cells; [5]),EC50 (PC12 mHTTQ103 cells; [8]),"Kd ([1]; Tables 6, 11, 12, read-out: Kd (nM), first value of two-site binding)","Kd ([1]; Tables 6, 11, 12, read-out: Kd (nM), second value of two-site binding)",PC12 cells EC50 (PC12 mHTTQ103 cells; [5]),Solubility ([2]; in water)
–,100 mM,97.1 nM,–,–,O=c1c2ccccc2sn1CN1CCSCC1 [LC-3],–,0.463 µM,63%,63.05%,–,–,–,–,–
30 mM in DMSO,30 mM,–,KD = N/A irreversible or not active,–,O=C(Nc1ccccc1)n1sc2ccccc2c1=O [LC-6],–,0.476 µM,66%,66.47%,–,–,–,–,–
100 mM in DMSO,100 mM,–,–,–,O=c1c2ccccc2sn1CN1CCC(O)CC1 [LC-7],–,0.441 µM,72%,71.98%,–,–,–,–,–
–,–,–,–,–,CC(C)(C)OC(=O)NC1CCN(Cn2sc3ccccc3c2=O)CC1 [LC-8],94 nM,0.384 µM,68%,68.37%,0.384 µM,–,–,–,–
5 mM in DMSO,5 mM,12.7 nM,–,13 nM,O=c1c2ccccc2sn1CN1CCN(Cn2sc3ccccc3c2=O)CC1 [LC-9],–,–,66%,66.07%,0.173 µM,–,–,–,–
100 mM in DMSO,100 mM,–,KD = N/A irreversible or not active,–,O=C(c1ccccc1)n1sc2ccccc2c1=O [LC-11],–,> 50 µM,28%,27.72%,–,–,–,–,–
100 mM in DMSO,100 mM,–,–,–,O=c1c2ccccc2sn1CN1CCN(c2ncccn2)CC1 [LC-12],140 ± 29 nM,0.416 µM,68%,68.35%,–,–,–,–,–
100 mM in DMSO,100 mM,–,–,–,CC(=O)c1ccc(N2CCN(Cn3sc4ccccc4c3=O)CC2)cc1 [LC-13],190 ± 27 nM,0.514 µM,63%,63.14%,–,–,–,–,–
–,–,–,KD = N/A irreversible or not active,–,O=C(C1CC1)N1CCN(C(=O)n2sc3ccccc3c2=O)CC1 [LC-14],–,> 50 µM,34%,33.58%,–,–,–,–,–
15 mM in DMSO,15 mM,–,–,–,O=C(C1CC1)N1CCN(Cn2sc3ccc(Cl)cc3c2=O)CC1 [LC-15],114 nM,0.487 µM,57%,56.92%,0.487 µM,–,–,–,–
–,–,–,KD = N/A irreversible or not active,–,CC(C)(C)OC(=O)N1CCC(COc2nsc3ccccc23)CC1 [LC-16],–,> 50 µM,30%,30.24%,–,–,–,–,–
100 mM in DMSO,100 mM,–,KD = N/A irreversible or not active,–,O=C(Nc1ccc(N2CCOCC2)cc1)c1ccccc1S [LC-21],–,0.696 µM,32%,31.98%,–,–,–,–,–
100 mM in DMSO,100 mM,–,–,–,O=c1c2ccccc2sn1CN1CCN(Cc2ccccc2)CC1 [LC-22],173 ± 32 nM,0.31 µM,62%,61.51%,–,–,–,–,–
100 mM in DMSO,100 mM,–,KD = N/A irreversible or not active,–,O=C(Nc1ccc(Cc2ccccc2)cc1)c1ccccc1S [LC-23],–,3.88 µM,57%,56.53%,–,–,–,–,–
100 mM in DMSO,100 mM,–,KD = N/A irreversible or not active,–,O=c1c2ccccc2sn1-c1ccc(Cc2ccccc2)cc1 [LC-25],–,1.59 µM,37%,36.83%,–,–,–,–,–
100 mM in DMSO,100 mM,–,KD = N/A irreversible or not active,–,O=c1c2ccccc2sn1Cc1ccc(Br)cc1 [LC-26],–,0.778 µM,38%,37.88%,–,–,–,–,–
–,–,–,KD = N/A irreversible or not active,–,O=c1c2ccccc2sn1-c1ccc(N2CCOCC2)cc1 [LC-27],–,1.83 µM,28%,28.37%,–,–,–,–,–
100 mM in DMSO,100 mM,–,KD = N/A irreversible or not active,–,C[C@@H](NC(=O)c1ccccc1S)c1ccccc1 [LC-28],–,0.808 µM,56%,55.52%,–,–,–,–,–
100 mM in DMSO,100 mM,–,–,–,C[C@H](c1ccccc1)n1sc2ccccc2c1=O [LC-29],658 nM,0.669 µM,42%,42.02%,0.669 µM,–,–,–,–
100 mM in DMSO,100 mM,–,KD = N/A irreversible or not active,–,O=c1c2ccccc2sn1-c1cccc(F)c1 [LC-31],–,1.77 µM,36%,36.24%,–,–,–,–,–
100 mM in DMSO,100 mM,–,–,–,COCCn1sc2ccccc2c1=O [LC-32],158 nM,0.7 µM,42%,41.96%,–,–,–,–,–
100 mM in DMSO,100 mM,–,KD = N/A irreversible or not active,–,O=C(Nc1ccc(Oc2ccccc2)cc1)c1ccccc1S [LC-33],–,2.94 µM,54%,54.43%,–,–,–,–,–
100 mM in DMSO,100 mM,–,KD = N/A irreversible or not active,–,Cc1ccc(NC(=O)c2ccccc2S)c(Br)c1 [LC-34],–,3.77 µM,42%,41.95%,–,–,–,–,–
–,–,–,KD = N/A irreversible or not active,–,"O=c1[nH]sc2ncccc12 [LC-47, isothiazolo[5,4-b]pyridin-3(2H)-one]",–,> 50 µM,36%,36.31%,–,–,–,–,–
100 mM in DMSO,–,–,–,–,O=C(C1CC1)N1CCN(Cn2oc3ccccc3c2=O)CC1 [Oxy- LOC14],–,–,–,8.16%,–,–,–,Not Active,–

Structure (SMILES),Solubility [2],"Solubility [2, 6]","Kd [1, 7]",ITC KD ([1]; N/A = not active),"Kd ([1]; ITC assay, read-out: KD)","Kd [1, 3]",EC50 (PC12 mHTTQ103 cells; [4]),"Max Viability (%) (PC12 mHTTQ103 cells; Tables 5-13, PC12 cells)",PC12 cells Max % Viability (PC12 mHTTQ103 cells; [5]),EC50 (PC12 mHTTQ103 cells; [8]),"Kd ([1]; Tables 6, 11, 12, read-out: Kd (nM), first value of two-site binding)","Kd ([1]; Tables 6, 11, 12, read-out: Kd (nM), second value of two-site binding)",PC12 cells EC50 (PC12 mHTTQ103 cells; [5]),Solubility ([2]; in water)
O=c1c2ccccc2sn1CN1CCCCC1 [LC-1],100 mM in DMSO,100 mM,–,–,–,107 nM,0.459 µM,67%,66.57%,–,–,–,–,–
CN1CCN(Cn2sc3ccccc3c2=O)CC1 [LC-2],100 mM in DMSO,100 mM,–,–,–,134 ± 20 nM,0.415 µM,63%,63.29%,–,–,–,–,–
O=c1c2ccccc2sn1CN1CCC(CO)CC1 [LC-4],100 mM in DMSO,100 mM,–,–,–,265 nM,0.343 µM,60%,60.18%,0.343 µM,–,–,–,–
O=c1c2ccccc2sn1Cc1ccccc1 [LC-5],100 mM in DMSO,100 mM,–,–,–,–,–,–,–,–,43 nM,2270 nM,–,–
CC(C)(C)OC(=O)N1CCN(Cn2sc3ccccc3c2=O)CC1 [LC-10],100 mM in DMSO,100 mM,–,–,–,123 ± 34 nM,0.581 µM,72%,71.82%,0.561 µM,–,–,–,–
O=c1c2ccccc2sn1CN1CCOCC1 [LC-18],100 mM in DMSO,100 mM,–,–,–,253 nM,0.547 µM,69%,69.00%,–,–,–,–,–
O=C(Nc1ccccc1)c1ccccc1S [LC-19],–,–,–,KD = N/A irreversible or not active,–,–,–,–,–,–,–,–,–,–
O=C(NCc1ccc(Br)cc1)c1ccccc1S [LC-20],100 mM in DMSO,100 mM,–,KD = N/A irreversible or not active,–,–,> 50 µM,42%,42.11%,–,–,–,–,–
O=C(Nc1cccc(F)c1)c1ccccc1S [LC-30],100 mM in DMSO,100 mM,–,KD = N/A irreversible or not active,–,–,2.99 µM,62%,62.38%,–,–,–,–,–
Cn1sccc1=O [LC-35],–,100 mM,–,KD = N/A irreversible or not acitve,–,–,–,15%,14.63%,–,–,–,Not Active,100 mM in water
